System: 628569-122-R-J1-PDC complex spheroid viability
Assay: Anticancer human tumor 628569-122-R-J1-PDC patient-derived head and neck squamous carcinoma cell line growth inhibition [CLK]
Conditions: for IC50: curve of first compound; for viability, T/C: stronger effect = lower value; active = viability on the fitted dose curve at most 10% of control; inactive = the rest
Outline: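 Patient-derived tumor cells grown as complex spheroids with HUVEC endothelial cells and mesenchymal stem cells, treated with drug combinations. Concentrations descend in half-log steps from near clinical Cmax, or from 10 microM if Cmax unknown.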

[1] = second compound 0.0316 µM, first compound 0.00316 µM
[2] = second compound 0.0316 µM, first compound 0.01 µM
[3] = second compound 0.0316 µM, first compound 0.0316 µM
[4] = second compound 0.0316 µM, first compound 0.1 µM
[5] = second compound 0.0316 µM, first compound 0.316 µM
[6] = second compound 0.0316 µM, first compound 1 µM
[7] = second compound 0.1 µM, first compound 0.00316 µM
[8] = second compound 0.1 µM, first compound 0.01 µM
[9] = second compound 0.1 µM, first compound 0.0316 µM
[10] = second compound 0.1 µM, first compound 0.1 µM
[11] = second compound 0.1 µM, first compound 0.316 µM
[12] = second compound 0.1 µM, first compound 1 µM
[13] = second compound 0.316 µM, first compound 0.00316 µM
[14] = second compound 0.316 µM, first compound 0.01 µM
[15] = second compound 0.316 µM, first compound 0.0316 µM
[16] = second compound 0.316 µM, first compound 0.1 µM
[17] = second compound 0.316 µM, first compound 0.316 µM
[18] = second compound 0.316 µM, first compound 1 µM
[19] = second compound 1 µM, first compound 0.00316 µM
[20] = second compound 1 µM, first compound 0.01 µM
[21] = second compound 1 µM, first compound 0.0316 µM
[22] = second compound 1 µM, first compound 0.1 µM
[23] = second compound 1 µM, first compound 0.316 µM
[24] = second compound 1 µM, first compound 1 µM
[25] = second compound 3.16 µM, first compound 0.00316 µM
[26] = second compound 3.16 µM, first compound 0.01 µM
[27] = second compound 3.16 µM, first compound 0.0316 µM
[28] = second compound 3.16 µM, first compound 0.1 µM
[29] = second compound 3.16 µM, first compound 0.316 µM
[30] = second compound 3.16 µM, first compound 1 µM
[31] = second compound 10 µM, first compound 0.00316 µM
[32] = second compound 10 µM, first compound 0.01 µM
[33] = second compound 10 µM, first compound 0.0316 µM
[34] = second compound 10 µM, first compound 0.1 µM
[35] = second compound 10 µM, first compound 0.316 µM
[36] = second compound 10 µM, first compound 1 µM
[37] = second compound 0.0316 µM, first compound 3.16 µM
[38] = second compound 0.0316 µM, first compound 10 µM
[39] = second compound 0.1 µM, first compound 3.16 µM
[40] = second compound 0.1 µM, first compound 10 µM
[41] = second compound 0.316 µM, first compound 3.16 µM
[42] = second compound 0.316 µM, first compound 10 µM
[43] = second compound 1 µM, first compound 3.16 µM
[44] = second compound 1 µM, first compound 10 µM
[45] = second compound 3.16 µM, first compound 3.16 µM
[46] = second compound 3.16 µM, first compound 10 µM
[47] = second compound 10 µM, first compound 3.16 µM
[48] = second compound 10 µM, first compound 10 µM
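Also: spheroids exposed to agents for seven days before readout.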
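For viability, T/C in this document: 100% = DMSO vehicle control viability.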

CCc1c2c(nc3ccc(O)cc13)-c1cc3c(c(=O)n1C2)COC(=O)[C@]3(O)CC + CNC(=O)c1ccc(Nc2nc(OC3CCCC3)c3c(-c4ccc5nc(C)oc5c4)c[nH]c3n2)c(OC)c1
< 3.16 nM: IC50 (second compound 1 µM) | IC50 (second compound 3.16 µM) | IC50 (second compound 10 µM)
10.7 nM: IC50 (second compound 0.316 µM)
326 nM: IC50 (second compound 0.0316 µM)
61.5 nM: IC50 (second compound 0.1 µM)
inactive: viability, T/C [1] 62.2% | viability, T/C [2] 47.5% | viability, T/C [3] 53.5% | viability, T/C [4] 46.6% | viability, T/C [5] 51.5% | viability, T/C [6] 11.4% | viability, T/C [7] 56.6% | viability, T/C [8] 51.1% | viability, T/C [9] 55.2% | viability, T/C [10] 43.1% | viability, T/C [11] 42% | viability, T/C [12] 13.9% | viability, T/C [13] 54.2% | viability, T/C [14] 49.4% | viability, T/C [15] 42.8% | viability, T/C [16] 44.4% | viability, T/C [17] 31.9% | viability, T/C [18] 21.8% | viability, T/C [19] 38.8% | viability, T/C [20] 42.2% | viability, T/C [21] 40.2% | viability, T/C [22] 34.2% | viability, T/C [23] 26.1% | viability, T/C [24] 11.1% | viability, T/C [25] 39.8% | viability, T/C [26] 40% | viability, T/C [27] 36.4% | viability, T/C [28] 39.2% | viability, T/C [29] 29.7% | viability, T/C [30] 7.37% | viability, T/C [31] 38.7% | viability, T/C [32] 41.8% | viability, T/C [33] 37.1% | viability, T/C [34] 33.5% | viability, T/C [35] 24.5%
active: viability, T/C [36] 6.76%

Cn1ncnc1[C@H]1c2n[nH]c(=O)c3cc(F)cc(c23)N[C@@H]1c1ccc(F)cc1 + CNC(=O)c1ccc(Nc2nc(OC3CCCC3)c3c(-c4ccc5nc(C)oc5c4)c[nH]c3n2)c(OC)c1
< 0.316 nM: IC50 (second compound 1 µM) | IC50 (second compound 3.16 µM) | IC50 (second compound 10 µM)
> 100 nM: IC50 (second compound 0.0316 µM)
1.53 nM: IC50 (second compound 0.316 µM)
37.6 nM: IC50 (second compound 0.1 µM)
inactive: viability, T/C (second compound 0.0316 µM, first compound 0.000316 µM) 86.7% | viability, T/C (second compound 0.0316 µM, first compound 0.001 µM) 90.1% | viability, T/C [1] 82.7% | viability, T/C [2] 71.3% | viability, T/C [3] 78% | viability, T/C [4] 64.9% | viability, T/C (second compound 0.1 µM, first compound 0.000316 µM) 61.4% | viability, T/C (second compound 0.1 µM, first compound 0.001 µM) 53.4% | viability, T/C [7] 60.1% | viability, T/C [8] 53.7% | viability, T/C [9] 51% | viability, T/C [10] 45.9% | viability, T/C (second compound 0.316 µM, first compound 0.000316 µM) 47.7% | viability, T/C (second compound 0.316 µM, first compound 0.001 µM) 48.4% | viability, T/C [13] 51.9% | viability, T/C [14] 54.4% | viability, T/C [15] 54.5% | viability, T/C [16] 39.6% | viability, T/C (second compound 1 µM, first compound 0.000316 µM) 43.9% | viability, T/C (second compound 1 µM, first compound 0.001 µM) 39.5% | viability, T/C [19] 48.1% | viability, T/C [20] 39% | viability, T/C [21] 40.1% | viability, T/C [22] 40.2% | viability, T/C (second compound 3.16 µM, first compound 0.000316 µM) 37.5% | viability, T/C (second compound 3.16 µM, first compound 0.001 µM) 45.5% | viability, T/C [25] 48.5% | viability, T/C [26] 41.5% | viability, T/C [27] 37.7% | viability, T/C [28] 34.3% | viability, T/C (second compound 10 µM, first compound 0.000316 µM) 47.4% | viability, T/C (second compound 10 µM, first compound 0.001 µM) 39.6% | viability, T/C [31] 41.4% | viability, T/C [32] 36.7% | viability, T/C [33] 38% | viability, T/C [34] 31.3%

Nc1ccn(C2OC(CO)C(O)C2(F)F)c(=O)n1 (stereo not given) + CNC(=O)c1ccc(Nc2nc(OC3CCCC3)c3c(-c4ccc5nc(C)oc5c4)c[nH]c3n2)c(OC)c1
< 31.6 nM: IC50 (second compound 0.316 µM) | IC50 (second compound 1 µM) | IC50 (second compound 3.16 µM) | IC50 (second compound 10 µM)
200 nM: IC50 (second compound 0.0316 µM)
inactive: viability, T/C [3] 65.9% | viability, T/C [4] 51.8% | viability, T/C [5] 50.4% | viability, T/C [6] 40.7% | viability, T/C [37] 50.8% | viability, T/C [38] 51.8% | viability, T/C [9] 53.1% | viability, T/C [10] 52.3% | viability, T/C [11] 49.5% | viability, T/C [12] 43.9% | viability, T/C [39] 57.2% | viability, T/C [40] 49.3% | viability, T/C [15] 49.9% | viability, T/C [16] 50.3% | viability, T/C [17] 50.5% | viability, T/C [18] 40.6% | viability, T/C [41] 47.3% | viability, T/C [42] 51.8% | viability, T/C [21] 43.2% | viability, T/C [22] 47% | viability, T/C [23] 42.1% | viability, T/C [24] 35.8% | viability, T/C [43] 32.8% | viability, T/C [44] 45.6% | viability, T/C [27] 45% | viability, T/C [28] 43.6% | viability, T/C [29] 38.2% | viability, T/C [30] 33.5% | viability, T/C [45] 50.3% | viability, T/C [46] 39.5% | viability, T/C [33] 49.3% | viability, T/C [34] 46.1% | viability, T/C [35] 39.5% | viability, T/C [36] 31.3% | viability, T/C [47] 36.6% | viability, T/C [48] 39.8%
> 10000 nM: IC50 (second compound 0.1 µM)

O=C(c1cc(Cc2n[nH]c(=O)c3ccccc23)ccc1F)N1CCN(C(=O)C2CC2)CC1 + CNC(=O)c1ccc(Nc2nc(OC3CCCC3)c3c(-c4ccc5nc(C)oc5c4)c[nH]c3n2)c(OC)c1
1980 nM: IC50 (second compound 0.316 µM)
> 10000 nM: IC50 (second compound 0.0316 µM) | IC50 (second compound 0.1 µM)
inactive: viability, T/C [3] 99.7% | viability, T/C [4] 105% | viability, T/C [5] 102% | viability, T/C [6] 81.9% | viability, T/C [37] 103% | viability, T/C [38] 61.7% | viability, T/C [9] 63.2% | viability, T/C [10] 60% | viability, T/C [11] 60.7% | viability, T/C [12] 59.6% | viability, T/C [39] 62.8% | viability, T/C [40] 41.7% | viability, T/C [15] 50.8% | viability, T/C [16] 55.5% | viability, T/C [17] 56.6% | viability, T/C [18] 51.9% | viability, T/C [41] 47.5% | viability, T/C [42] 39.7% | viability, T/C [21] 39.8% | viability, T/C [22] 49.3% | viability, T/C [23] 47.5% | viability, T/C [24] 47% | viability, T/C [43] 45.2% | viability, T/C [44] 33.2% | viability, T/C [27] 43.7% | viability, T/C [28] 44.4% | viability, T/C [29] 41.8% | viability, T/C [30] 41.2% | viability, T/C [45] 42.5% | viability, T/C [46] 31.5% | viability, T/C [33] 46.6% | viability, T/C [34] 41.8% | viability, T/C [35] 49.3% | viability, T/C [36] 39.1% | viability, T/C [47] 56.1% | viability, T/C [48] 26.5%
31.6 nM: IC50 (second compound 10 µM)
< 31.6 nM: IC50 (second compound 1 µM) | IC50 (second compound 3.16 µM)

O=c1[nH]cc(F)c(=O)[nH]1 + CNC(=O)c1ccc(Nc2nc(OC3CCCC3)c3c(-c4ccc5nc(C)oc5c4)c[nH]c3n2)c(OC)c1
> 10000 nM: IC50 (second compound 0.0316 µM) | IC50 (second compound 0.1 µM) | IC50 (second compound 0.316 µM)
< 31.6 nM: IC50 (second compound 1 µM) | IC50 (second compound 3.16 µM) | IC50 (second compound 10 µM)
inactive: viability, T/C [3] 108% | viability, T/C [4] 99.2% | viability, T/C [5] 101% | viability, T/C [6] 84.8% | viability, T/C [37] 72.9% | viability, T/C [38] 60.6% | viability, T/C [9] 59.1% | viability, T/C [10] 52.6% | viability, T/C [11] 62.2% | viability, T/C [12] 52.7% | viability, T/C [39] 60.4% | viability, T/C [40] 49.8% | viability, T/C [15] 50.9% | viability, T/C [16] 60.5% | viability, T/C [17] 52.4% | viability, T/C [18] 54% | viability, T/C [41] 60.3% | viability, T/C [42] 47.8% | viability, T/C [21] 43.5% | viability, T/C [22] 50.4% | viability, T/C [23] 41.6% | viability, T/C [24] 52.3% | viability, T/C [43] 54.7% | viability, T/C [44] 47.7% | viability, T/C [27] 44.9% | viability, T/C [28] 44.9% | viability, T/C [29] 48.8% | viability, T/C [30] 48.8% | viability, T/C [45] 48.8% | viability, T/C [46] 35.6% | viability, T/C [33] 45.4% | viability, T/C [34] 37.9% | viability, T/C [35] 46% | viability, T/C [36] 46% | viability, T/C [47] 47.5% | viability, T/C [48] 45.3%

Reference: PubChem BioAssay AID2060611 (Molecular Pharmacology Branch, DTP, NCI, 2025)
